# Measurements as given in ChEMBL document CHEMBL5715952 (Oncotarget, 2015).
# Calls of active or inactive are those of the source. No cut-off for these calls is given here.
# Experiments:
# [1] = system: U-266; assay: cells; conditions: Homo sapiens, U-266, 72 h
# [2] = Ratio of IC50 for inhibition of FLT3/cKIT/FGFR3/VEGFR3/PDGFR/CSF1R in human ANBL6 cells assessed as reduction of cell viability to IC50 for inhibition of FLT3/cKIT/FGFR3/VEGFR3/PDGFR/CSF1R in human ANBL6/BR resistant cells assessed as reduction of cell viability; conditions: condition multiple myeloma
# [3] = cells; conditions: Homo sapiens, Bortezomib-resistant RPMI-8226, 72 h
# [4] = Ratio of IC50 for inhibition of FLT3/cKIT/FGFR3/VEGFR1/PDGFR/CSF1R in human ANBL6 cells assessed as reduction of cell viability to IC50 for inhibition of FLT3/cKIT/FGFR3/VEGFR1/PDGFR/CSF1R in human ANBL6/BR resistant cells assessed as reduction of cell viability; conditions: condition multiple myeloma
# [5] = Ratio of IC50 for inhibition of FLT3/cKIT/FGFR1/VEGFR1/PDGFR/CSF1R in human RPMI-8226 cells assessed as reduction of cell viability to IC50 for inhibition of FLT3/cKIT/FGFR1/VEGFR1/PDGFR/CSF1R in human RPMI-8226/BR resistant cells assessed as reduction of cell viability; conditions: condition multiple myeloma
# [6] = Ratio of IC50 for inhibition of FLT3/cKIT/FGFR3/VEGFR3/PDGFR/CSF1R in human RPMI-8226 cells assessed as reduction of cell viability to IC50 for inhibition of FLT3/cKIT/FGFR3/VEGFR3/PDGFR/CSF1R in human melphalan-resistant RPMI-8226 cells assessed as reduction of cell viability; conditions: time 72 hrs; condition multiple myeloma
# [7] = system: RPMI-8226; assay: Cytotoxicity against human RPMI-8226 cells assessed as reduction of cell growth incubated for 72 hrs by CellTiter 96 aqueous one solution cell proliferation assay; format: functional, cell-based; conditions: RPMI-8226, 72 h
# [8] = Ratio of IC50 for inhibition of FLT3/cKIT/FGFR3/VEGFR1/PDGFR/CSF1R in human RPMI-8226 cells assessed as reduction of cell viability to IC50 for inhibition of FLT3/cKIT/FGFR3/VEGFR1/PDGFR/CSF1R in human melphalan-resistant RPMI-8226 cells assessed as reduction of cell viability; conditions: time 72 hrs; condition multiple myeloma
# [9] = Ratio of IC50 for inhibition of FLT3/cKIT/FGFR3/VEGFR2/PDGFR/CSF1R in human RPMI-8226 cells assessed as reduction of cell viability to IC50 for inhibition of FLT3/cKIT/FGFR3/VEGFR2/PDGFR/CSF1R in human melphalan-resistant RPMI-8226 cells assessed as reduction of cell viability; conditions: time 72 hrs; condition multiple myeloma
# [10] = Ratio of IC50 for inhibition of FLT3/cKIT/FGFR1/VEGFR2/PDGFR/CSF1R in human RPMI-8226 cells assessed as reduction of cell viability to IC50 for inhibition of FLT3/cKIT/FGFR1/VEGFR2/PDGFR/CSF1R in human melphalan-resistant RPMI-8226 cells assessed as reduction of cell viability; conditions: time 72 hrs; condition multiple myeloma
# [11] = Ratio of IC50 for inhibition of FLT3/cKIT/FGFR3/VEGFR1/PDGFR/CSF1R in human RPMI-8226 cells assessed as reduction of cell viability to IC50 for inhibition of FLT3/cKIT/FGFR3/VEGFR1/PDGFR/CSF1R in human RPMI-8226/BR resistant cells assessed as reduction of cell viability; conditions: condition multiple myeloma
# [12] = Ratio of IC50 for inhibition of FLT3/cKIT/FGFR1/VEGFR3/PDGFR/CSF1R in human RPMI-8226 cells assessed as reduction of cell viability to IC50 for inhibition of FLT3/cKIT/FGFR1/VEGFR3/PDGFR/CSF1R in human melphalan-resistant RPMI-8226 cells assessed as reduction of cell viability; conditions: time 72 hrs; condition multiple myeloma
# [13] = Ratio of IC50 for inhibition of FLT3/cKIT/FGFR1/VEGFR1/PDGFR/CSF1R in human ANBL6 cells assessed as reduction of cell viability to IC50 for inhibition of FLT3/cKIT/FGFR1/VEGFR1/PDGFR/CSF1R in human ANBL6/BR resistant cells assessed as reduction of cell viability; conditions: condition multiple myeloma
# [14] = system: Bortezomib-resistant ANBL6; assay: cells; conditions: Homo sapiens, Bortezomib-resistant ANBL6, 72 h
# [15] = Ratio of IC50 for inhibition of FLT3/cKIT/FGFR1/VEGFR1/PDGFR/CSF1R in human RPMI-8226 cells assessed as reduction of cell viability to IC50 for inhibition of FLT3/cKIT/FGFR1/VEGFR1/PDGFR/CSF1R in human melphalan-resistant RPMI-8226 cells assessed as reduction of cell viability; conditions: time 72 hrs; condition multiple myeloma
# [16] = Ratio of IC50 for inhibition of FLT3/cKIT/FGFR1/VEGFR2/PDGFR/CSF1R in human ANBL6 cells assessed as reduction of cell viability to IC50 for inhibition of FLT3/cKIT/FGFR1/VEGFR2/PDGFR/CSF1R in human ANBL6/BR resistant cells assessed as reduction of cell viability; conditions: condition multiple myeloma
# [17] = Ratio of IC50 for inhibition of FLT3/cKIT/FGFR1/VEGFR3/PDGFR/CSF1R in human ANBL6 cells assessed as reduction of cell viability to IC50 for inhibition of FLT3/cKIT/FGFR1/VEGFR3/PDGFR/CSF1R in human ANBL6/BR resistant cells assessed as reduction of cell viability; conditions: condition multiple myeloma
# [18] = Ratio of IC50 for inhibition of FLT3/cKIT/FGFR3/VEGFR2/PDGFR/CSF1R in human RPMI-8226 cells assessed as reduction of cell viability to IC50 for inhibition of FLT3/cKIT/FGFR3/VEGFR2/PDGFR/CSF1R in human RPMI-8226/BR resistant cells assessed as reduction of cell viability; conditions: condition multiple myeloma
# [19] = Ratio of IC50 for inhibition of FLT3/cKIT/FGFR3/VEGFR3/PDGFR/CSF1R in human RPMI-8226 cells assessed as reduction of cell viability to IC50 for inhibition of FLT3/cKIT/FGFR3/VEGFR3/PDGFR/CSF1R in human RPMI-8226/BR resistant cells assessed as reduction of cell viability; conditions: condition multiple myeloma
# [20] = Ratio of IC50 for inhibition of FLT3/cKIT/FGFR1/VEGFR3/PDGFR/CSF1R in human RPMI-8226 cells assessed as reduction of cell viability to IC50 for inhibition of FLT3/cKIT/FGFR1/VEGFR3/PDGFR/CSF1R in human RPMI-8226/BR resistant cells assessed as reduction of cell viability; conditions: condition multiple myeloma
# [21] = cells; conditions: Homo sapiens, Melphalan-resistant RPMI-8226 cell, 72 h
# [22] = system: ANBL-6; assay: cells; conditions: Homo sapiens, ANBL-6, 72 h
# [23] = Ratio of IC50 for inhibition of FLT3/cKIT/FGFR3/VEGFR2/PDGFR/CSF1R in human ANBL6 cells assessed as reduction of cell viability to IC50 for inhibition of FLT3/cKIT/FGFR3/VEGFR2/PDGFR/CSF1R in human ANBL6/BR resistant cells assessed as reduction of cell viability; conditions: condition multiple myeloma
# [24] = Ratio of IC50 for inhibition of FLT3/cKIT/FGFR1/VEGFR2/PDGFR/CSF1R in human RPMI-8226 cells assessed as reduction of cell viability to IC50 for inhibition of FLT3/cKIT/FGFR1/VEGFR2/PDGFR/CSF1R in human RPMI-8226/BR resistant cells assessed as reduction of cell viability; conditions: condition multiple myeloma
# [25] = system: Proteasome; assay: Ratio of IC50 for inhibition of proteasome in human RPMI-8226 cells assessed as reduction of cell viability to IC50 for inhibition of proteasome in human RPMI-8226/BR resistant cells assessed as reduction of cell viability; conditions: condition multiple myeloma
# [26] = system: Proteasome; assay: Ratio of IC50 for inhibition of proteasome in human ANBL6 cells assessed as reduction of cell viability to IC50 for inhibition of proteasome in human ANBL6/BR resistant cells assessed as reduction of cell viability; conditions: condition multiple myeloma
# [27] = system: Proteasome; assay: Inhibition of proteasome in bortezomib Resistant human RPMI-8226 cells assessed as reduction of cell growth incubated for 72 hrs by CellTiter 96 aqueous one solution cell proliferation assay; conditions: Bortezomib-resistant RPMI-8226, 72 h
# [28] = target: T1, Bromodomain and extra-terminal motif (BET) (Homo sapiens) (UniProt P25440+O60885+Q58F21+Q15059); assay: Inhibition of BET in human ANBL-6 WT cells assessed as increase in protein NOXA expression level at 20 nM by immunoblot analysis; format: cell-based
# [29] = system: Proteasome; assay: Inhibition of proteasome in human RPMI-8226 cells assessed as reduction of cell growth incubated for 72 hrs by CellTiter 96 aqueous one solution cell proliferation assay; conditions: RPMI-8226, 72 h
# [30] = system: Bortezomib-resistant ANBL6; assay: Induction of apoptosis in human bortezomib-resistant ANBL6 cells assessed as early apoptosis at 20 nM incubated for 72 hrs by annexin V and 7-AAD staining by flow cytometry analysis (Rvb=15 %); format: functional
# [31] = system: Bortezomib-resistant ANBL6; assay: Induction of apoptosis in human bortezomib-resistant ANBL6 cells assessed as late apoptosis at 20 nM incubated for 72 hrs by annexin V and 7-AAD staining by flow cytometry analysis (Rvb=5 %); format: functional
# [32] = system: ANBL-6; assay: Induction of apoptosis in wild-type human ANBL-6 cells assessed as late apoptosis at 20 nM incubated for 72 hrs by annexin V and 7-AAD staining by flow cytometry analysis (Rvb=26 %); format: functional
# [33] = system: ANBL-6; assay: Induction of apoptosis in wild-type human ANBL-6 cells assessed as viable at 20 nM incubated for 72 hrs by annexin V and 7-AAD staining by flow cytometry analysis (Rvb=59 %); format: functional
# [34] = system: Bortezomib-resistant ANBL6; assay: Induction of apoptosis in human bortezomib-resistant ANBL6 cells assessed as viable at 20 nM incubated for 72 hrs by annexin V and 7-AAD staining by flow cytometry analysis (Rvb=80 %); format: functional
# [35] = target: T1, Bromodomain and extra-terminal motif (BET) (Homo sapiens); assay: Inhibition of BET in human ANBL-6 WT cells assessed as change in protein MYC expression level at 20 nM by immunoblot analysis; format: cell-based
# [36] = system: Proteasome; assay: Inhibition of proteasome in human bortezomib-resistant ANBL6 cells assessed as reduction of cell growth incubated for 72 hrs by CellTiter 96 aqueous one solution cell proliferation assay
# [37] = system: Proteasome; assay: Inhibition of proteasome in human U-266 cells assessed as reduction of cell growth incubated for 72 hrs by CellTiter 96 aqueous one solution cell proliferation assay; conditions: U-266, 72 h
# [38] = system: Proteasome; assay: Inhibition of proteasome in human ANBL-6 cells assessed as reduction of cell growth incubated for 72 hrs by CellTiter 96 aqueous one solution cell proliferation assay; conditions: ANBL-6, 72 h
# [39] = target: T1, Bromodomain and extra-terminal motif (BET) (Homo sapiens); assay: Inhibition of BET in human bortezomib-resistant ANBL6 cells assessed as change in protein MYC expression level at 20 nM by immunoblot analysis; format: cell-based; conditions: Bortezomib-resistant ANBL6 cell
# [40] = system: Proteasome; assay: Inhibition of proteasome in Melphalan Resistant human RPMI-8226 cells assessed as reduction of cell growth incubated for 72 hrs by CellTiter 96 aqueous one solution cell proliferation assay; conditions: Melphalan-resistant RPMI-8226 cell
# [41] = system: ANBL-6; assay: Induction of apoptosis in wild-type human ANBL-6 cells assessed as early apoptosis at 20 nM incubated for 72 hrs by annexin V and 7-AAD staining by flow cytometry analysis (Rvb=14 %); format: functional
# [42] = target: T1, Bromodomain and extra-terminal motif (BET) (Homo sapiens); assay: Inhibition of BET in human bortezomib-resistant ANBL6 cells assessed as increase in protein NOXA expression level at 20 nM by immunoblot analysis; format: cell-based; conditions: Bortezomib-resistant ANBL6 cell
smiles,measurement,setting,value
CN1CCN(c2ccc3nc(-c4c(N)c5c(F)cccc5[nH]c4=O)[nH]c3c2)CC1 [DOVITINIB],IC50,[1],6760 nM
same,Ratio IC50,[2],1.51
same,IC50,[3],5620 nM
same,Ratio IC50,[4],1.51
same,Ratio IC50,[5],0.38
same,Ratio IC50,[6],2.6
same,IC50,[7],2140 nM
same,Ratio IC50,[8],2.6
same,Ratio IC50,[9],2.6
same,Ratio IC50,[10],2.6
same,Ratio IC50,[11],0.38
same,Ratio IC50,[12],2.6
same,Ratio IC50,[13],1.51
same,IC50,[14],6610 nM
same,Ratio IC50,[15],2.6
same,Ratio IC50,[16],1.51
same,Ratio IC50,[17],1.51
same,Ratio IC50,[18],0.38
same,Ratio IC50,[19],0.38
same,Ratio IC50,[20],0.38
same,IC50,[21],2950 nM
same,IC50,[22],10000 nM
same,Ratio IC50,[23],1.51
same,Ratio IC50,[24],0.38
CC(C)C[C@H](NC(=O)[C@H](Cc1ccccc1)NC(=O)c1cnccn1)B(O)O [BORTEZOMIB],Ratio IC50,[25],[…]
same,inhibition,[28],Active
same,Activity,[30],45%
same,Activity,[31],6%
same,Activity,[32],22%
same,Activity,[33],7%
same,Activity,[34],49%
same,inhibition,[35],inactive
same,inhibition,[39],inactive
same,Activity,[41],71%
same,inhibition,[42],Active
